PubChem BioAssay AID248 (DTP/NCI, 2004)
Values joined by “and” are separate entries in the source; they are usually repeats but may differ in a detail not shown here. Identical values can stand only once. Inconclusive results and toxic doses are left out.

Test system: L1210 leukemia ip in BDF1 mice, survival T/C
Assay: NCI In Vivo Anticancer Drug Screen. Data for tumor model L1210 Leukemia (intraperitoneal) in B6D2F1 (BDF1) mice
Details: endpoint: mean survival time, higher = longer survival
Method in brief: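 Transplantable tumor model; survival measured in treated vs vehicle control mice. Value = treated/control.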

[1] = dose: 75.0 mg/kg/injection, schedule: Q01DX001 (ip), vehicle: saline
[2] = dose: 100.0 mg/kg/injection, schedule: Q01DX009 (ip), vehicle: Klucel (hydroxypropylcellulose) (HPC)
[3] = dose: 100.0 mg/kg/injection, schedule: Q04DX003 (ip), vehicle: Klucel (hydroxypropylcellulose) (HPC)
[4] = dose: 200.0 mg/kg/injection, schedule: Q04DX003 (ip), vehicle: Klucel (hydroxypropylcellulose) (HPC)
[5] = dose: 400.0 mg/kg/injection, schedule: Q04DX003 (ip), vehicle: Klucel (hydroxypropylcellulose) (HPC)
[6] = dose: 100.0 mg/kg/injection, schedule: Q01DX009 (ip), vehicle: saline with Tween-80
[7] = dose: 100.0 mg/kg/injection, schedule: Q04DX003 (ip), vehicle: saline with Tween-80
[8] = dose: 200.0 mg/kg/injection, schedule: Q01DX009 (ip), vehicle: saline with Tween-80
[9] = dose: 200.0 mg/kg/injection, schedule: Q04DX003 (ip), vehicle: saline with Tween-80
[10] = dose: 400.0 mg/kg/injection, schedule: Q04DX003 (ip), vehicle: saline with Tween-80
[11] = dose: 100.0 mg/kg/injection, schedule: Q01DX009 (ip), vehicle: saline
[12] = dose: 100.0 mg/kg/injection, schedule: Q04DX003 (ip), vehicle: saline
[13] = dose: 200.0 mg/kg/injection, schedule: Q01DX009 (ip), vehicle: saline
[14] = dose: 200.0 mg/kg/injection, schedule: Q04DX003 (ip), vehicle: saline
[15] = dose: 400.0 mg/kg/injection, schedule: Q04DX003 (ip), vehicle: saline
[16] = dose: 50.0 mg/kg/injection, schedule: Q01DX009 (ip), vehicle: saline
[17] = dose: 100.0 mg/kg/injection, schedule: Q01DX001 (ip), vehicle: carboxymethylcellulose (CMC)
[18] = dose: 25.0 mg/kg/injection, schedule: Q01DX009 (ip), vehicle: saline

In the case of `Nc1nc(N)c2nn(-c3ccc(C(=O)O)cc3)nc2n1`, the T/C [1] is reported as 87 % of control, the T/C (dose: 150.0 mg/kg/injection, schedule: Q01DX001 (ip), vehicle: saline) is reported as 86 % of control and the T/C (dose: 300.0 mg/kg/injection, schedule: Q01DX001 (ip), vehicle: saline) is reported as 103 % of control.
In the case of `O=C(Nc1ccc(Br)cc1)Nc1cccc(Cl)c1`, the T/C (dose: 100.0 mg/kg/injection, schedule: Q04DX002 (ip), vehicle: saline) is reported as 103 % of control, the T/C (dose: 200.0 mg/kg/injection, schedule: Q04DX002 (ip), vehicle: saline) is reported as 103 % of control and the T/C (dose: 400.0 mg/kg/injection, schedule: Q04DX002 (ip), vehicle: saline) is reported as 96 % of control.
`CSC(=S)NNC(=O)c1ccc(C)cc1` was tested, and the T/C (dose: 20.0 mg/kg/injection, schedule: Q04DX003 (ip), vehicle: saline) was 96 % of control, the T/C (dose: 40.0 mg/kg/injection, schedule: Q04DX003 (ip), vehicle: saline) was 98 % of control and the T/C [1] was 98 % of control. For the same compound, the T/C (dose: 75.0 mg/kg/injection, schedule: Q04DX003 (ip), vehicle: saline) was 105 % of control.
For `C[n+]1c2c(cc3ccccc31)CCC2`, the T/C (dose: 12.5 mg/kg/injection, schedule: Q01DX009 (ip), vehicle: saline with Tween-80) was 87 % of control, the T/C (dose: 25.0 mg/kg/injection, schedule: Q01DX009 (ip), vehicle: saline with Tween-80) was 97 % of control and the T/C (dose: 50.0 mg/kg/injection, schedule: Q01DX009 (ip), vehicle: saline with Tween-80) was 108 % of control and 90 % of control.
With `COc1ccc(COC(=O)CN2C(=O)c3ccccc3C2=O)cc1` the T/C [2] was 98 % of control, the T/C [3] was 95 % of control and the T/C (dose: 200.0 mg/kg/injection, schedule: Q01DX009 (ip), vehicle: Klucel (hydroxypropylcellulose) (HPC)) was 107 % of control. For the same compound, the T/C [4] was 95 % of control, the T/C (dose: 400.0 mg/kg/injection, schedule: Q01DX009 (ip), vehicle: Klucel (hydroxypropylcellulose) (HPC)) was 98 % of control and the T/C [5] was 93 % of control.
In the case of `O=[N+]([O-])c1ccc(Oc2ccc(Cl)cc2)cc1`, the T/C [3] is reported as 94 % of control, the T/C [4] is reported as 102 % of control and the T/C [5] is reported as 94 % of control.
In the case of `CCC(=O)c1ccc(OC(=O)Nc2ccc(Cl)cc2[N+](=O)[O-])cc1`, the T/C [6] is reported as 100 % of control and 92 % of control, the T/C (dose: 100.0 mg/kg/injection, schedule: Q04DX002 (ip), vehicle: saline with Tween-80) is reported as 97 % of control and 113 % of control and the T/C [7] is reported as 102 % of control. The T/C [8] was 96 % of control and 103 % of control, the T/C (dose: 200.0 mg/kg/injection, schedule: Q04DX002 (ip), vehicle: saline with Tween-80) was 97 % of control and 91 % of control and the T/C [9] was 95 % of control. The T/C (dose: 400.0 mg/kg/injection, schedule: Q01DX009 (ip), vehicle: saline with Tween-80) was 92 % of control, the T/C (dose: 400.0 mg/kg/injection, schedule: Q04DX002 (ip), vehicle: saline with Tween-80) was 95 % of control and 92 % of control and the T/C [10] was 97 % of control.
For `CCCn1cnc2c(=S)nc(N)[nH]c21`, the T/C (dose: 0.94 mg/kg/injection, schedule: Q01DX Z (ip), vehicle: methylcellulose (MC)) was 105 % of control, the T/C (dose: 1.88 mg/kg/injection, schedule: Q01DX Z (ip), vehicle: methylcellulose (MC)) was 122 % of control and the T/C (dose: 3.3 mg/kg/injection, schedule: Q01DX Z (ip), vehicle: methylcellulose (MC)) was 121 % of control. The T/C (dose: 3.75 mg/kg/injection, schedule: Q01DX Z (ip), vehicle: methylcellulose (MC)) was 108 % of control, the T/C (dose: 5.0 mg/kg/injection, schedule: Q01DX Z (ip), vehicle: methylcellulose (MC)) was 152 % of control and the T/C (dose: 7.5 mg/kg/injection, schedule: Q01DX Z (ip), vehicle: methylcellulose (MC)) was 101 % of control. For the same compound, the T/C (dose: 15.0 mg/kg/injection, schedule: Q01DX Z (ip), vehicle: methylcellulose (MC)) was 105 % of control.
`Nc1nc(N)c(N=Nc2ccc([As](=O)(O)O)c(O)c2)c(N)n1` was tested, and the T/C (dose: 100.0 mg/kg/injection, schedule: Q01DX001 (ip), vehicle: saline) was 92 % of control, the T/C (dose: 200.0 mg/kg/injection, schedule: Q01DX001 (ip), vehicle: saline) was 92 % of control and the T/C (dose: 400.0 mg/kg/injection, schedule: Q01DX001 (ip), vehicle: saline) was 100 % of control.
For `NNC(=O)CO`, the T/C [11] was 108 % of control, the T/C [12] was 101 % of control and the T/C [13] was 106 % of control. For the same compound, the T/C [14] was 97 % of control, the T/C (dose: 400.0 mg/kg/injection, schedule: Q01DX009 (ip), vehicle: saline) was 114 % of control and the T/C [15] was 98 % of control.
With `CCn1c(=O)cn[nH]c1=O` the T/C [16] was 97 % of control, the T/C [11] was 97 % of control and the T/C [13] was 94 % of control.
`COCC1OC(Nc2ccccc2)C(OC)C(OC)C1OC` (stereo unspecified) was tested, and the T/C [7] was 89 % of control, the T/C [9] was 94 % of control and the T/C [10] was 89 % of control.
With `Nc1ccccc1S(=O)(=O)F` the T/C (dose: 75.0 mg/kg/injection, schedule: Q04DX003 (ip), vehicle: Klucel (hydroxypropylcellulose) (HPC)) was 100 % of control, the T/C [17] was 98 % of control and the T/C (dose: 150.0 mg/kg/injection, schedule: Q04DX003 (ip), vehicle: Klucel (hydroxypropylcellulose) (HPC)) was 94 % of control. The T/C (dose: 200.0 mg/kg/injection, schedule: Q01DX001 (ip), vehicle: carboxymethylcellulose (CMC)) was 98 % of control, the T/C (dose: 300.0 mg/kg/injection, schedule: Q04DX003 (ip), vehicle: Klucel (hydroxypropylcellulose) (HPC)) was 96 % of control and the T/C (dose: 400.0 mg/kg/injection, schedule: Q01DX001 (ip), vehicle: carboxymethylcellulose (CMC)) was 101 % of control.
In the case of `O=[N+]([O-])c1ccc(-c2ccccc2)c([As](=O)(O)O)c1`, the T/C (dose: 25.0 mg/kg/injection, schedule: Q04DX002 (ip), vehicle: saline with Tween-80) is reported as 106 % of control.
For `NC(CNC(=O)OCc1ccccc1)=NCC(=O)O`, the T/C (dose: 25.0 mg/kg/injection, schedule: Q04DX003 (ip), vehicle: saline with Tween-80) was 94 % of control, the T/C (dose: 50.0 mg/kg/injection, schedule: Q04DX003 (ip), vehicle: saline with Tween-80) was 89 % of control and the T/C [7] was 89 % of control and 92 % of control.
For `CC1(C(=O)O)OCCO1`, the T/C [6] was 94 % of control and the T/C [8] was 90 % of control.
`CN(C)C(=O)O/N=C(\c1ccccc1)C(F)(F)F` was tested, and the T/C (dose: 0.5 mg/kg/injection, schedule: Q01DX001 (ip), vehicle: saline) was 103 % of control, the T/C (dose: 1.0 mg/kg/injection, schedule: Q01DX001 (ip), vehicle: saline) was 102 % of control and the T/C (dose: 2.0 mg/kg/injection, schedule: Q01DX001 (ip), vehicle: saline) was 97 % of control.
For `CCCCCCCCCCCCCCC(F)C(=O)O` (stereo unspecified), the T/C (dose: 50.0 mg/kg/injection, schedule: Q01DX009 (ip), vehicle: Klucel (hydroxypropylcellulose) (HPC)) was 96 % of control, the T/C [2] was 101 % of control and the T/C [3] was 92 % of control. The T/C [4] was 91 % of control.
With `O=C(N/N=C/c1ccccn1)C1CCCO1` (stereo unspecified) the T/C [18] was 102 % of control, the T/C [16] was 102 % of control and the T/C [11] was 98 % of control and 116 % of control. For the same compound, the T/C [13] was 117 % of control.
With `O=[N+]([O-])c1cc([N+](=O)[O-])cc(S(=O)(=O)O)c1` the T/C [18] was 106 % of control, the T/C [16] was 105 % of control and the T/C [11] was 100 % of control and 111 % of control. For the same compound, the T/C [12] was 105 % of control and the T/C [14] was 105 % of control.
In the case of `Cc1cccc(Nc2cc(=S)nc(N)[nH]2)c1`, the T/C (dose: 100.0 mg/kg/injection, schedule: Q01DX Z (ip), vehicle: methylcellulose (MC)) is reported as 98 % of control and the T/C (dose: 200.0 mg/kg/injection, schedule: Q01DX Z (ip), vehicle: methylcellulose (MC)) is reported as 106 % of control.
With `Cc1cccc([P+](Cc2ccccc2)(c2cccc(C)c2)c2cccc(C)c2)c1` the T/C (dose: 15.0 mg/kg/injection, schedule: Q01DX001 (ip), vehicle: carboxymethylcellulose (CMC)) was 90 % of control.
With `COc1c([N+](=O)[O-])cc(-c2ccccc2)cc1[N+](=O)[O-]` the T/C [12] was 87 % of control, the T/C [14] was 87 % of control and the T/C [15] was 87 % of control.
For `COC(=O)C1(N(C)C)c2ccccc2-c2ccccc21`, the T/C [17] was 105 % of control.
`CN1CCCN(C)C1c1ccccc1O` was tested, and the T/C (dose: 12.5 mg/kg/injection, schedule: Q04DX003 (ip), vehicle: saline) was 96 % of control, the T/C (dose: 25.0 mg/kg/injection, schedule: Q04DX003 (ip), vehicle: saline) was 106 % of control and the T/C (dose: 50.0 mg/kg/injection, schedule: Q04DX003 (ip), vehicle: saline) was 101 % of control.
